Values joined by “and” are separate entries in the source; they are usually repeats but may differ in a detail not shown here. Equal values may be shown once. Read-outs that look alike come from different tables or passages of the source.
Experiments:
[1] = cited from earlier work
[2] = ref Geist et al., 2013; cited from earlier work
clinical = conditions: human, in vivo
Description: After the second sequence of drug administration, follow-up data were collected for 2 weeks (from day 16 to day 30) from all volunteers regarding any side effects or toxicity-related issues. […] Blurring vision has been reported as a major side effect in the literature ([Theuretzbacher et al., 2006]). […] In the follow-up period, we carefully monitored the aspartate aminotransferase (AST) and alanine transaminase (ALT) biochemical test reports of that volunteer.

[3] = Single oral dose, randomized, crossover PK-DDI study of voriconazole with clarithromycin; plasma voriconazole by RP HPLC UV-Vis, non-compartmental analysis; assay type: in vivo, human; conditions: for Cmaax of voriconazole, Mean & std. Deviation / Erate (elimination rate) of voriconazole, Mean & std. Deviation / tmax (time to reach Cmax) of voriconazole, Mean & std. Deviation: single oral dose; for concentration at 0.5 h / concentration at 1 h / concentration at 1.5 h / concentration at 2 h / concentration at 3 h / concentration at 4 h / concentration at 6 h / concentration at 8 h / concentration at 24 h: male, oral, Voriconazole plasma concentration
Protocol: The study designed was a single oral dose, open-labeled, randomized, crossover, and consisted of 02 weeks of washouts in between for evaluating drug-drug interaction in healthy volunteers.
A 2-week washout period was allocated from day 2 to day 15 to avoid the carry-over effect. […] All volunteers took the medication with a glass of water (250 mL). On days 1 and 16 (treatment days), two and 6 hours after drug administration, standard breakfast and lunch were served to all volunteers, respectively.
After taking blood samples, immediately these samples were centrifuged (at 500 rpm for 10–15 min) to separate plasma from blood (RBC) and stored at −80°C till analysis.
The plasma samples were subjected to protein precipitation and drug extraction with acetonitrile (ACN). A fixed volume of plasma (200 μL), ACN (200 μL), and internal standard (i.e., 2 μg/mL of fluconazole), taken into Eppendorf tubes were vortexed (for 5 min) and kept in the centrifuge at 10,000 RPM for 10–15 min for protein separation. Their supernatant (organic layer) layer was cautiously separated and analyzed by the already developed method. Chromatographic conditions of the HPLC-UV method comprised of isocratic mobile-phase ACN: H2O in 60:40 v/v proportions at a flow rate of 1.5 mL/min and UV detection at 254 nm. Then each sample was analyzed at least three times using the Flexar-series HPLC system, Norwalk, USA, by utilizing a C-18 Perkin-Elmer® column (with particulars of 150 mm length, 4.6 mm inner diameter, and 5 μm particle size). The total run time for each sample was ≤7.0 min.
The pharmacokinetic (PK) parameters used for PK-DDI assessment and plasma drug concentration vs. time profile were analyzed statistically through a non-compartmental approach.Pharmacokinetics PK-Summit® (version 2.0.2; Summit Research Services, Ashland, OH) software was used to evaluate all pharmacokinetic parameters. The various non-compartmental pharmacokinetic (PK) parameters calculated were peak plasma concentration (Cmax, µg/mL), time to reach Cmax (tmax, h), the elimination half-life (E-t1/2, h), an area under the curve from time zero to infinity (AUC^0-∞, μg×h/mL), and the area under the concentration-time curve from time zero to time-t (AUC^0-t, μg×h/mL), mean residence time (MRT, h), elimination rate (Erate, 1/h), apparent clearance (CL/Kg, L/h/Kg) and apparent volume of distribution (Vd, L/Kg).
Descriptive statistical tests were performed using SPSS software (version 21.0; IBM Crop; SPSS®; 2012); for a non-compartmental approach Pharmacokinetics PK-Summit® (version 2.0.2; Summit Research Services, Ashland, OH) software and MS-Excel used for results evaluation, and such data were presented graphically. […] The SPSS software (version 21.0; IBM Crop; SPSS®; 2012) procedure MIXED was used with treatment and visits as a fixed effect and subject as a random effect using the Residual maximum likelihood REML method. Sharpiro-Wilk test was used to check the normality of PK parameters. Log transformation was applied to those PK parameters (such as Cmax, MRT, apparent Vd, and E-t1/2) which were not normally distributed. […] These differences were evaluated by the ratios of geometric means between treatments and used a 90% CI for these ratios.

CYP3A4 = test system: CYP3A4; parameters: method as in Mikus et al., 2006; conditions: read-out: Michaelis-Menten constant (Km) of voriconazole oxidase activity; CYP3A4 expressed in human CYP enzyme; ref Mikus et al., 2006; cited from earlier work
[4] = ref Geist et al., 2013; Hohmann et al., 2016; cited from earlier work
[5] = increased, exact percentage not reported, ref Heinz et al. (2007)
[6] = increased, exact percentage not reported, ref Yasu et al. (2016)
[7] = ref Kakuda et al., (2013), Calcagno et al., (2014)
[8] = increased, exact percentage not reported, ref Motta et al. (2016)
[9] = increased, exact percentage not reported, ref Bouatou et al. (2014)
[10] = Voriz (Alone): voriconazole 200 mg × 2 tablets, n = 12
[11] = Voriz + CLRM: voriconazole 200 mg × 2 tablets + clarithromycin 500 mg tablet, n = 12
[12] = human, plasma, 400 mg, Series 1: voriconazole 400 mg alone
[13] = human, plasma, Series 2: voriconazole 400 mg along with clarithromycin 500 mg
[14] = with clarithromycin versus alone, stated as decrease

Structure (SMILES): COc1ccnc(C[S+]([O-])c2nc3ccc(OC(F)F)cc3[nH]2)c1OC (stereo not shown) [Pantoprazole]
- ↑AUC of voriconazole (increase by effector drug) [1, 5]: ↑ ^NR*
- ↑Cmax of voriconazole (increase by effector drug) [1, 5]: ↑ ^NR*

Structure (SMILES): Cc1c(OCC(F)(F)F)ccnc1C[S+]([O-])c1nc2ccccc2[nH]1 (stereo not shown) [Lanoprazole]
- ↑AUC of voriconazole (increase by effector drug) [1, 6]: ↑ ^NR*
- ↑Cmax of voriconazole (increase by effector drug) [1, 6]: ↑ ^NR*

Structure (SMILES): CNC(=C[N+](=O)[O-])NCCSCc1ccc(CN(C)C)o1 [Ranitidine]
- ↑AUC of voriconazole (increase by effector drug) ([1]; ref Purkins et al. (2003b)): *↑4%
- ↑Cmax of voriconazole (increase by effector drug) ([1]; ref Purkins et al. (2003b)): *↑3.5%

Structure (SMILES): Cc1cc(C#N)cc(C)c1Oc1nc(Nc2ccc(C#N)cc2)nc(N)c1Br [Etravirine]
- ↑AUC of voriconazole (increase by effector drug) [1, 7]: *↑14%
- ↑Cmax of voriconazole (increase by effector drug) [1, 7]: *↑23%

Structure (SMILES): CC[C@H]1OC(=O)[C@H](C)[C@@H](O[C@H]2C[C@@](C)(OC)[C@@H](O)[C@H](C)O2)[C@H](C)[C@@H](O[C@@H]2O[C@H](C)C[C@H](N(C)C)[C@H]2O)[C@](C)(O)C[C@@H](C)CN(C)[C@H](C)[C@@H](O)[C@]1(C)O [Azithromycin]
- ↑AUC of voriconazole (increase by effector drug) ([1]; ref Purkins et al. (2003d)): *↑8%
- ↑Cmax of voriconazole (increase by effector drug) ([1]; ref Purkins et al. (2003d)): *↑18%

Structure (SMILES): O=C(CCCN1CCC(O)(c2ccc(Cl)cc2)CC1)c1ccc(F)cc1 [Haloperidol]
- ↑AUC of voriconazole (increase by effector drug) [1, 8]: ↑ ^NR*
- ↑Cmax of voriconazole (increase by effector drug) [1, 8]: ↑ ^NR*

Structure (SMILES): COc1ccc2[nH]c([S+]([O-])Cc3ncc(C)c(OC)c3C)nc2c1 (stereo not shown) [Omeprazole]
- ↑AUC of voriconazole (increase by effector drug) ([1]; ref Wood et al. (2003)): *↑41%
- ↑Cmax of voriconazole (increase by effector drug) ([1]; ref Wood et al. (2003)): *↑15%

Structure (SMILES): COc1ccc2nc([S@@+]([O-])Cc3ncc(C)c(OC)c3C)[nH]c2c1 [Esomeprazole]
- ↑AUC of voriconazole (increase by effector drug) [1, 9]: ↑ ^NR*
- ↑Cmax of voriconazole (increase by effector drug) [1, 9]: ↑ ^NR*

Structure (SMILES): CN/C(=N/CCSCc1nc[nH]c1C)NC#N [Cimetidine]
- ↑AUC of voriconazole (increase by effector drug) ([1]; ref Purkins et al. (2003b)): *↑22.5%
- ↑Cmax of voriconazole (increase by effector drug) ([1]; ref Purkins et al. (2003b)): *↑18.5%

Structure (SMILES): CC[C@H]1OC(=O)[C@H](C)[C@@H](O[C@H]2C[C@@](C)(OC)[C@@H](O)[C@H](C)O2)[C@H](C)[C@@H](O[C@@H]2O[C@H](C)C[C@H](N(C)C)[C@H]2O)[C@](C)(O)C[C@@H](C)C(=O)[C@H](C)[C@@H](O)[C@]1(C)O [Erythromycin]
- ↑AUC of voriconazole (increase by effector drug) ([1]; ref Purkins et al. (2003d)): *↑1%
- ↑Cmax of voriconazole (increase by effector drug) ([1]; ref Purkins et al. (2003d)): *↑8%

Structure (SMILES): C[C@@H](c1ncncc1F)[C@](O)(Cn1cncn1)c1ccc(F)cc1F [voriconazole, (2R, 3S) -2-(2,4-difluorophenyl) -3-(5-fluora-4pyrimidinyl) -1-(1H −1,2,4-trizole-1-yl) -2-butanol]
- protein binding [2]: 58%
- Side effect: blurred vision (clinical): Blurred vision was observed in two volunteers
- Side effect: dizziness (clinical): One of our volunteers had felt dizziness
- Cmax (clinical; male): 5000 ng/mL
- Duration of blurred vision (clinical; male): 10 to 15 min
- Cmaax of voriconazole, Mean & std. Deviation ([3]; Voriz (Alone): voriconazole 200 mg × 2 tablets, fasted healthy male volunteers n = 12): 2.52 ± 0.21 µg/mL
- Erate (elimination rate) of voriconazole, Mean & std. Deviation [3, 10]: 0.09 h⁻¹ and 0.09 ± 0.02 h⁻¹
- tmax (time to reach Cmax) of voriconazole, Mean & std. Deviation [3, 10]: 2.00 ± 0 h and 2 h
- AUC0-t of voriconazole, % difference ([3]; Voriz + CLRM vs Voriz (Alone)): 16%
- Apparent Vd/kg of voriconazole, % difference ([3]; Voriz + CLRM vs Voriz (Alone)): −23%
- Cmaax of voriconazole, % difference ([3]; Voriz + CLRM vs Voriz (Alone)): 52%
- MRT of voriconazole, % difference ([3]; Voriz + CLRM vs Voriz (Alone)): −10%
- tmax of voriconazole, % difference ([3]; Voriz + CLRM vs Voriz (Alone)): −25%
- Cmaax of voriconazole, Mean & std. Deviation [3, 11]: 3.84 ± 0.562 µg/mL
- Erate (elimination rate) of voriconazole, Mean & std. Deviation [3, 11]: 0.11 h⁻¹ and 0.11 ± 0.02 h⁻¹
- tmax (time to reach Cmax) of voriconazole, Mean & std. Deviation [3, 11]: 1.50 ± 0 h and 1.5 h
- AUC(0-inf) ([3]; human, plasma, po, 400 mg): 9090 ± 790 ng·h/mL
- AUC(0-t) ([3]; human, plasma, po, 400 mg): 8600 ± 720 ng·h/mL
- MRT ([3]; human, plasma, po, 400 mg): 6.16 ± 0.95 h
- half-life ([3]; human, plasma, po, 400 mg): 476 ± 31.8 min
- concentration at 0.5 h [3, 12]: 225 ng/mL
- concentration at 1 h [3, 12]: 1020 ng/mL
- concentration at 1.5 h [3, 12]: 1890 ng/mL
- concentration at 2 h [3, 12]: 2520 ng/mL
- concentration at 3 h [3, 12]: 1320 ng/mL
- concentration at 4 h [3, 12]: 781 ng/mL
- concentration at 6 h [3, 12]: 401 ng/mL
- concentration at 8 h [3, 12]: 170 ng/mL
- concentration at 24 h [3, 12]: 39.1 ng/mL
- concentration at 0.5 h [3, 13]: 378 ng/mL
- concentration at 1 h [3, 13]: 2040 ng/mL
- concentration at 1.5 h [3, 13]: 3840 ng/mL
- concentration at 2 h [3, 13]: 2500 ng/mL
- concentration at 3 h [3, 13]: 995 ng/mL
- concentration at 4 h [3, 13]: 661 ng/mL
- concentration at 6 h [3, 13]: 433 ng/mL
- concentration at 8 h [3, 13]: 224 ng/mL
- concentration at 24 h [3, 13]: 41.8 ng/mL
- decrease in tmax of voriconazole [3, 14]: 25%
- decrease of E-t1/2 of voriconazole [3, 14]: 26%
- decrease of MRT of voriconazole [3, 14]: 10%
- reduction (decrease) in the apparent volume of distribution (Vd) of voriconazole [3, 14]: 23%
- Km (CYP3A4): 235 µM
- oral bioavailability (B.A) [4]: 96%

From PMC10288581 (Frontiers in Pharmacology, 2023)
